Data reported in patent US20090286722A1 (priority 2005, published 2009).
Each block holds one molecule with its values, some of them ahead of it. No end group written: not given here. *: point of attachment. Palmitoyl = CCCCCCCCCCCCCCCC(=O)*

Legend:
ob/ob mice [1] = assay: Daily N-AcGIP(PEG) for 14 days in 12 weeks old ob/ob mice; format: in vivo
Method: FIG. 27 is a pair of line graphs showing the effects of daily N-AcGIP(PEG) administration on food intake and body weight. N-AcGIP(PEG) (25 nmoles/kg/day) or saline vehicle (control) were administered for the 14-day period. Values are mean±SEM for 8 mice.
FIG. 28 is a pair of line graphs showing changes of plasma glucose and insulin after daily treatment of ob/ob mice with N-AcGIP(PEG) (25 nmoles/kg/day) or saline vehicle (control) for 14 days. Values are mean±SEM for 8 mice.
FIG. 29 is a set of line graphs showing the effects of daily N-AcGIP(PEG) administration on glucose tolerance and plasma insulin response to glucose. Tests were conducted after 14 daily injections of either N-AcGIP(PEG) ([…]) or saline vehicle (control). Glucose (18 mmoles/kg) was administered by intraperitoneal injection. Plasma glucose and insulin AUC values for 0-60 min post injection are shown in the right panels. Values are mean±SEM for 8 mice. *p<0.05 compared to control.
FIG. 30 is a line graph and a bar graph showing the effects of daily N-AcGIP(PEG) administration on insulin sensitivity. Tests were conducted after 14 daily injections of either N-AcGIP(PEG) (25 nmoles/kg/day) or saline vehicle (control). Insulin (50 U/kg) was administered by intraperitoneal injection. Plasma glucose AUC values from baseline for 0-60 min post injection are shown in the right panels. Values are mean±SEM for 8 mice. *p<0.05 compared to control.

[2] = tested on: dipeptidyl peptidase IV (DPP IV; EC 3.4.15.5); assay: in the circulation; details: cited from earlier work
dipeptidyl peptidase IV [3] = assay: purified porcine dipeptidyl peptidase IV (5 mU) in 50 mM triethanolamine-HCl (pH 7.8); details: 37° C., up to 24 hours
ob/ob mice [4] = assay: Acute glucose lowering and insulin release, peptide given i.p. with glucose to 18 hour fasted ob/ob mice; details: 25 nmol/kg i.p. with glucose 18 mmol/kg
dipeptidyl peptidase IV [5] = target: dipeptidyl peptidase IV (Sus scrofa, UniProt P22411); assay: DPP IV degradation, % intact peptide by HPLC; format: in vitro ADME, porcine; details: pig, purified porcine dipeptidyl peptidase IV (DPP IV), 37° C., pH 7.8
Method: (§1) HPLC peak area data were used to calculate the percentage intact peptide remaining at the various time points during the incubation.

[6] = target: purified porcine dipeptidyl peptidase IV (Sus scrofa, UniProt P22411); assay: DPP IV degradation, % intact peptide by HPLC; format: in vitro ADME; details: 37° C., pH 7.8
Method: as §1

ob/ob mice [7] = assay: 24 hour plasma glucose and insulin profile after a single dose in non-fasted ob/ob mice; format: in vivo; details: single 12.5 nmol/kg i.p.
Text: Dose of 12.5 nmol kg^−1 was chosen to evaluate the longer-term duration of action of a single dose of native or fatty acid derivatised GIP in non-fasted ob/ob mice.

Normal mice = assay: Intraperitoneal glucose tolerance with peptide in younger versus older normal mice; format: in vivo; details: 25 nmol/kg i.p. with glucose 18 mmol/kg, AUC 0-60 min
Method: Body weight and food intake were recorded over five days before commencement of metabolic tests. Intraperitoneal (i.p.) glucose tolerance (18 mmol/kg body weight) was assessed in non-fasted animals.

BRIN-BD11 cells = assay: Insulin release from BRIN-BD11 cells, GIP alone and combined with antidiabetic drugs; format: cell-based; details: 5.6 mM glucose, 20 minutes; for insulin secretion from BRIN-BD11 cells, agent alone: GIP 10 nM, drugs 25-200 μM; for insulin secretion, combination of agent with GIP compared with either agent alone: 10 nM GIP plus drug
Method: Acute insulin-release studies were carried out using clonal pancreatic BRIN-BD11 cells, whose origin, characteristics and secretory responsiveness have been outlined in detail elsewhere (Irwin, N. et al., 2005, Biol. Chem. (In Press)). BRIN-BD11 cells were seeded into 24-multiwell plates at a density of 10^5 cells per well and allowed to attach overnight at 37° C.

[8] = target: purified porcine dipeptidyl peptidase IV (porcine, UniProt P22411 38-766, limits assumed); assay: cell-based or functional assay
[9] = after 14 days, glucose 18 mmol/kg i.p.

Chain of purified porcine dipeptidyl peptidase IV (porcine, UniProt P22411 38-766, limits assumed) (P22411 38-766 limits assumed): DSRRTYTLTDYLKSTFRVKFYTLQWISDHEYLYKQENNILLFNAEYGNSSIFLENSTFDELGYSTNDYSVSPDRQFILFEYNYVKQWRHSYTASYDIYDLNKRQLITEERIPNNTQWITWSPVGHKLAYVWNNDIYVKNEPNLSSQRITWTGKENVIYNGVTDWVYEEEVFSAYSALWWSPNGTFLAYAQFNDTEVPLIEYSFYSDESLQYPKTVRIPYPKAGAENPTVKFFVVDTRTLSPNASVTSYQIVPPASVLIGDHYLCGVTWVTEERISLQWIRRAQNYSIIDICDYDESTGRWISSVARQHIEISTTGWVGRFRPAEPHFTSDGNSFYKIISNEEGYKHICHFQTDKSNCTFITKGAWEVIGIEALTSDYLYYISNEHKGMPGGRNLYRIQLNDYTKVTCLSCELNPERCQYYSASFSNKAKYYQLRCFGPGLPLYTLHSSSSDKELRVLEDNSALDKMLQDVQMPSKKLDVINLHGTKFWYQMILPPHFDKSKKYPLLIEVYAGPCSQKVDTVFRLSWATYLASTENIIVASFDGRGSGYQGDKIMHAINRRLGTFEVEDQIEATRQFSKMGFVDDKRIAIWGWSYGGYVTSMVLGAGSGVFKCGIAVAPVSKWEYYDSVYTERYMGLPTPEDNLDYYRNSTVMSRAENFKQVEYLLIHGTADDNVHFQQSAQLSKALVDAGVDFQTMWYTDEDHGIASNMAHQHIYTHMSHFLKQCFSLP
Chain of purified porcine dipeptidyl peptidase IV (Sus scrofa, UniProt P22411) (P22411 whole entry): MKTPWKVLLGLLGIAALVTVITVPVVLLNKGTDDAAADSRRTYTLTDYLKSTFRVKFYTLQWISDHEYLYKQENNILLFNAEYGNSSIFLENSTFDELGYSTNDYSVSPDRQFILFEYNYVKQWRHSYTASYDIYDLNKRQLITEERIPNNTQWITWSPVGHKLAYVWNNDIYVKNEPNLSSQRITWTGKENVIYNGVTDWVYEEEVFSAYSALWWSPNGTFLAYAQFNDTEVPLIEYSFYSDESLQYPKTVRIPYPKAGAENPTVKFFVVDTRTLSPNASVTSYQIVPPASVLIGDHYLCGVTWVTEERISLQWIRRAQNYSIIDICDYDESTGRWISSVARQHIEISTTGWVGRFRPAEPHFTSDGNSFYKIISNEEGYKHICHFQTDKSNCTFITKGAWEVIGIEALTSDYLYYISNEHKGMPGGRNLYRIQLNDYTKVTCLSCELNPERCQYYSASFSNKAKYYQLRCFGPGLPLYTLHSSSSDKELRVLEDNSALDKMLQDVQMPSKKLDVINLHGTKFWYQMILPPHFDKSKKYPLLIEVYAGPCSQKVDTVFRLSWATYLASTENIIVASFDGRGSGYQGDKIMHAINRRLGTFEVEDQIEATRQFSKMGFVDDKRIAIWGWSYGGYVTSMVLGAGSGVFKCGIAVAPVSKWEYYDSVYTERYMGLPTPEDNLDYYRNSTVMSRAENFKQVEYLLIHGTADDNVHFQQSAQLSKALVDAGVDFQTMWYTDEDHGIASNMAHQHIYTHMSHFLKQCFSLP
Chain of dipeptidyl peptidase IV (Sus scrofa, UniProt P22411) (P22411 whole entry): as above

Molecule: N-AcGIP(PEG): GIP molecule in which PEG is attached to the C-terminus and the Acetyl group to the opposite end
circulating insulin (ob/ob mice [1]; 25 nmoles/kg/day, 14 days): without appreciable change | effect on body weight (ob/ob mice [1]; 25 nmoles/kg/day, 14 days): did not affect | effect on food intake (ob/ob mice [1]; 25 nmoles/kg/day, 14 days): did not affect | non-fasting glucose (ob/ob mice [1]; 25 nmoles/kg/day, 14 days): decreased | glucose tolerance after intraperitoneal glucose load (ob/ob mice [1]; [9]): improved glucose tolerance | overall glycaemic response after intraperitoneal glucose load (ob/ob mice [1]; [9]): reduced the overall glycaemic response | plasma insulin concentrations and insulin response to intraperitoneal glucose (ob/ob mice [1]; [9]): enhanced | plasma glucose after administration of insulin (insulin sensitivity) (ob/ob mice [1]; after 14 days, insulin 50 U/kg i.p.): lower plasma glucose concentrations

fragment found (dipeptidyl peptidase IV [3]): GIP(3-42), major, 2 hours
Molecule: yaegtfisdysiamdkihqqdfvnwllaqkgkkndwkhnitq
fragment found [2]: GIP(3-42), major

remaining at 2 h, 2 mM (dipeptidyl peptidase IV [5]; 2 h incubation with DPP IV (5 mU), read-out: % Intact peptide remaining after time (h) 2): 52 ± 3% | remaining at 8 h, 2 mM (dipeptidyl peptidase IV [5]; 8 h incubation with DPP IV (5 mU), read-out: % Intact peptide remaining after time (h) 8): 0% | remaining at 24 h, 2 mM (dipeptidyl peptidase IV [5]; 24 h incubation with DPP IV (5 mU), read-out: % Intact peptide remaining after time (h) 24): 0% | % Intact peptide remaining after time (h) 0 ([6]; 0 h incubation with DPP IV (5 mU)): 100% | % Intact peptide remaining after time (h) 2 ([6]; 2 h incubation with DPP IV (5 mU)): 52±3% | % Intact peptide remaining after time (h) 8 ([6]; 8 h incubation with DPP IV (5 mU)): completely degraded
Molecule: CC[C@H](C)[C@H](NC(=O)[C@H](CO)NC(=O)[C@H](Cc1ccc(O)cc1)NC(=O)[C@H](CC(=O)O)NC(=O)[C@H](CO)NC(=O)[C@@H](NC(=O)[C@H](Cc1ccccc1)NC(=O)[C@@H](NC(=O)CNC(=O)[C@H](CCC(=O)O)NC(=O)[C@H](C)NC(=O)[C@@H](N)Cc1ccc(O)cc1)[C@@H](C)O)[C@@H](C)CC)C(=O)N[C@@H](C)C(=O)N[C@@H](CCSC)C(=O)N[C@@H](CC(=O)O)C(=O)N[C@@H](CCCCN)C(=O)N[C@H](C(=O)N[C@@H](Cc1c[nH]cn1)C(=O)N[C@@H](CCC(N)=O)C(=O)N[C@@H](CCC(N)=O)C(=O)N[C@@H](CC(=O)O)C(=O)N[C@@H](Cc1ccccc1)C(=O)N[C@H](C(=O)N[C@@H](CC(N)=O)C(=O)N[C@@H](Cc1c[nH]c2ccccc12)C(=O)N[C@@H](CC(C)C)C(=O)N[C@@H](CC(C)C)C(=O)N[C@@H](C)C(=O)N[C@@H](CCC(N)=O)C(=O)N[C@@H](CCCCN)C(=O)NCC(=O)N[C@@H](CCCCN)C(=O)N[C@@H](CCCCN)C(=O)N[C@@H](CC(N)=O)C(=O)N[C@@H](CC(=O)O)C(=O)N[C@@H](Cc1c[nH]c2ccccc12)C(=O)N[C@@H](CCCCN)C(=O)N[C@@H](Cc1c[nH]cn1)C(=O)N[C@@H](CC(N)=O)C(=O)N[C@H](C(=O)N[C@H](C(=O)N[C@@H](CCC(N)=O)C(=O)O)[C@@H](C)O)[C@@H](C)CC)C(C)C)[C@@H](C)CC [Native GIP, reference compound]
insulin release compared to glucose alone (ob/ob mice [4]): significantly greater | plasma glucose concentrations and AUC (0-60 min) compared to glucose alone (ob/ob mice [4]): neither this nor the overall AUC glucose excursion achieved significance | effect on plasma glucose over 24 hours (ob/ob mice [7]): transient, but not significant effect | overall plasma glucose response in older mice compared to younger controls (Normal mice): significantly elevated | overall plasma insulin response in older mice compared to younger controls (Normal mice): significantly less | insulin secretion from BRIN-BD11 cells, agent alone (BRIN-BD11 cells): stimulated insulin secretion

Molecule: CC(C)[C@H]1CC[C@H](C(=O)N[C@H](Cc2ccccc2)C(=O)O)CC1 [nateglinide]
insulin secretion, combination of agent with GIP compared with either agent alone (BRIN-BD11 cells): significant potentiation | insulin secretion from BRIN-BD11 cells, agent alone (BRIN-BD11 cells): stimulated insulin secretion

Molecule: COc1ccc(Cl)cc1C(=O)NCCc1ccc(S(=O)(=O)NC(=O)NC2CCCCC2)cc1 [glibenclamide]
insulin secretion, combination of agent with GIP compared with either agent alone (BRIN-BD11 cells): significant potentiation | insulin secretion from BRIN-BD11 cells, agent alone (BRIN-BD11 cells): stimulated insulin secretion

Molecule: CCCCNC(=O)NS(=O)(=O)c1ccc(C)cc1 [tolbutamide]
insulin secretion, combination of agent with GIP compared with either agent alone (BRIN-BD11 cells): significant potentiation | insulin secretion from BRIN-BD11 cells, agent alone (BRIN-BD11 cells): stimulated insulin secretion

% Intact peptide remaining after time (h): 0 [8]: 100% | % Intact peptide remaining after time (h): 2 [8]: 100% | % Intact peptide remaining after time (h): 8 [8]: 100% | % Intact peptide remaining after time (h): 24 [8]: 100%
Molecule: YAEGTFISDYSIAMDKIHQQDFVNWLLAQKGKKNDWKHNITQ (C-16 palmitoyl group on the epsilon amino group of Lys 16) [GIP(LysPAL^16)]

% Intact peptide remaining after time (h): 0 [8]: 100% | % Intact peptide remaining after time (h): 2 [8]: 52% | % Intact peptide remaining after time (h): 8 [8]: 0% | % Intact peptide remaining after time (h): 24 [8]: 0%
Molecule: YAEGTFISDYSIAMDKIHQQDFVNWLLAQKGKKNDWKHNITQ [native GIP (glucose-dependent insulinotropic polypeptide; gastric inhibitory polypeptide), GIP(1-42)]

% Intact peptide remaining after time (h): 0 [8]: 100% | % Intact peptide remaining after time (h): 2 [8]: 100% | % Intact peptide remaining after time (h): 8 [8]: 100% | % Intact peptide remaining after time (h): 24 [8]: 100%
Molecule: YAEGTFISDYSIAMDKIHQQDFVNWLLAQKGKKNDWK(Palmitoyl)HNITQ [GIP(LysPAL^37)]
